Assays:
δ opioid receptor = δ opioid receptor (Homo sapiens, UniProt P41143); assay: biochemical; format: binding
[1] = systemic administration; greater than I; cited from earlier work
[2] = higher than I; cited from earlier work
[3] = higher than I; cited from earlier work; remark: listed apart in the source

δ opioid receptor, sequence (P41143 whole entry): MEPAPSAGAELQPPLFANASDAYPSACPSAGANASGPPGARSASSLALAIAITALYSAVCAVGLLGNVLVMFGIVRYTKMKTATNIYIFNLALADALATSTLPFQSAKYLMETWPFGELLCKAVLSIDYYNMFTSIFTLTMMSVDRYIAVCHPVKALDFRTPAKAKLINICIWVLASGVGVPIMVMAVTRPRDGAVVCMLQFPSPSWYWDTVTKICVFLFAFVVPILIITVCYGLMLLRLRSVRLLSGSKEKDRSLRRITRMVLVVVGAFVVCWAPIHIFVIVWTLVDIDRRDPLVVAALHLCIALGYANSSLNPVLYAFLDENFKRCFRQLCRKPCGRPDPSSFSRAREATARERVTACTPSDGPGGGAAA

| SMILES | Ki (δ opioid receptor) [µM] | further results |
| --- | --- | --- |
| CN(CCOCCCc1ccccc1)Cc1ccccc1 [Compound 34, N-benzyl-N-methyl-2-(3-phenylpropoxy)ethanamine] | > 10 | – |
| CO[C@@]12CCC(=O)[C@]3(C)Oc4c(O)ccc5c4[C@@]31CCN(C)[C@@H]2C5 [II, 14-methoxymetopon] | – | systemic antinociceptive potency relative to I (morphine) [1]: 500 fold |
| CN(CCCc1ccccc1)CCOC/C=C/c1ccccc1 [Compound 37, 2-(Cinnamyloxy)-N-methyl-N-phenylpropylethanamine] | > 10 | – |
| CCCCN(CCCC)CCOC/C=C/c1ccccc1 [Compound 17, 2-(Cinnamyloxy)-N,N-dibutylethanamine] | > 10 | – |
| CCCCN(CCCC)CCOCCCc1ccccc1 [Compound 18, N,N-dibutyl-2-(3-phenylpropoxy)ethanamine] | > 10 | – |
| CN(CCOC/C=C/c1ccccc1)Cc1ccccc1 [Compound 33, N-benzyl-2-(cinnamyloxy)-N-methylethanamine] | > 10 | – |
| CN1CCC23c4c5ccc(O)c4OC2(C)C(=O)CCC3(OCCCc2ccccc2)C1C5 (centres unmarked) [III, 14-phenylpropyloxymetopon] | – | potency in the tail flick assay as compared to I (morphine) [2]: 24000 fold; potency in the hot plate assay as compared to I (morphine) [3]: 8500 fold |
